# Target: T1, Der p1 (Dermatophagoides pteronyssinus, UniProt P08176)
# T1 construct: Allergen stock solutions were derived from the extraction of the rearing medium of dust mites Dermatophagoides pteronyssinus; from tissue; host or cells: rearing medium of dust mites Dermatophagoides pteronyssinus (crude extract)
# T1 sequence (P08176 99-320): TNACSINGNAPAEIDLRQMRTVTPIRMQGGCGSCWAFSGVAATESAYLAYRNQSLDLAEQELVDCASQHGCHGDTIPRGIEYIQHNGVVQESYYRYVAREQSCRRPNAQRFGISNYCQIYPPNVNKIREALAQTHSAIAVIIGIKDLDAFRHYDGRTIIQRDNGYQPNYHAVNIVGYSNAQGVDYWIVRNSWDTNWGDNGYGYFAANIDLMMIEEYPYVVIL
# Assay: Allergen denaturing efficacy on Der p1-treated tissue, ELISA
# Type: biochemical
# Conditions: for Efficacy (%) on Der p1: tissue treated at 100 ml/m^2
# Method: Allergen stock solutions were derived from the extraction of the rearing medium of dust mites Dermatophagoides pteronyssinus or by the extraction of cat exposed tissues. Allergens were always stored or diluted in Phosphate Buffered Saline (PBS) of pH 7.4 containing NaCl 8 g/L, KH2PO4 0.2 g/L, Na2HPO4 1.15 g/L, KCl 0.2 g/L, Tween 20 0.5 ml/L.
# A tissue (Triconet: 40% PP, 60% Viscose, 0.7 mm thickness, 70 g/m^2) was treated with known amount of antigen, allowed to dry overnight and then treated with the allergen denaturing composition at 100 ml/m^2. The next day, the tissue was extracted in 5 ml of PBS and the concentration of allergen was determined by ELISA. ELISA tests were carried out according to the instructions of the commercially available test kits with monoclonal antibodies (www.inbio.com).
# Briefly, anti-Der p1 or anti-Fel d1 monoclonal antibodies are diluted 1/1000 in 50 mM carbonate-bicarbonate buffer, pH 9.6. and 100 μl is coated on a polystyrene microtiter well and allowed to incubate overnight at 4° C. Then, wells are washed 3 times with PBS containing 0.05% Tween 20, pH 7.4. (further called: wash step with PBS-T). After incubation with 100 μl 1% BSA in PBS-T for 30 minutes at room temperature, another wash step is executed. Then, 100 μl of diluted allergen standard or test samples is added to each well and incubated for 1 hour at room temperature. After a wash step, 100 μl per well of 1/1000 diluted biotinylated anti-Der p1 or anti-Fel d1 monoclonal antibody is added and incubated for 1 hour at room temperature. Then, another wash step is executed and 100 μl/well of a Streptavidin-Peroxidase (Sigma S5512, reconstituted in 1 ml distilled water) is added as a 1/1000 dilution in PBS-T and incubated for 30 minutes at room temperature. After a final wash step, 100 μl/well of 1 mM ABTS (2,2′-azino-bis(3-ethylbenzthiazoline-6-sulfonic acid)diammonium salt) in 70 mM citrate phosphate buffer, pH 4.2, containing 0.03% H2O2, is added. The assay was allowed to develop after dark green colouring of the highest concentration of the allergen standard. Optical density was read at 405 nm.
# Standard allergen dilution curves were taken for calibration. The range in which allergens can be quantified is 0.2-20 ppb for Fel d1 and from 1-100 ppb for Der p1. Dilutions were made until the concentration was in the right order of magnitude to enable quantification and percent reduction by the allergen denaturing composition.
# Possible synergy was investigated using Limpet's formula (Richter, D. L., Pestic. Sci. 1987, 19: 309-315): […]
# where Ec is the expected additive response, or calculated activity, X is the observed percentage control when component A is applied alone and Y is the observed percentage control when component B is applied alone. Synergy was considered to occur when the observed effect, or measured activity, of a combination of both components was greater than the corresponding Ec value.
Structure (SMILES),Efficacy (%) on Der p1 (La^3+ 0.01% alone) [%],Efficacy (%) on Der p1 (La^3+ 0.05% alone) [%],Efficacy (%) on Der p1 (La^3+ 0.2% alone) [%],Efficacy (%) on Der p1 (La^3+ 1.0% alone) [%],Efficacy (%) on Der p1 (Ca^2+ 0.05% alone) [%],Efficacy (%) on Der p1 (Ca^2+ 0.125% alone) [%],Efficacy (%) on Der p1 (Ca^2+ 0.5% alone) [%],"Efficacy (%) Expected value (Ec) (Ca^2+ 1%, La^3+ 0%) [%]","Efficacy (%) Measured value (Ca^2+ 1%, La^3+ 0%) [%]","Efficacy (%) Synergy (measured minus expected) (Ca^2+ 1%, La^3+ 0%) [%]",Efficacy (%) on Der p1 (Ca^2+ 2.0% alone) [%]
[La+3] [La^3+],12,0,0,100,,,,,,,
[Ca+2] [Ca^2+],,,,,0,0,28,46,46,0,96

# From patent US20110135750A1, “ANTI-ALLERGEN COMBINATIONS OF CALCIUM AND LANTHANUM” (priority 2008, published 2011)
